Read-outs that look alike come from different tables or passages of the source.
Target: T1, human LPA1 (Homo sapiens, UniProt Q92633)
T1 construct: expressed in transfected cells; host or cells: CHO-K1
Assay: In vitro LPA1 calcium flux antagonist assay - Bioduro protocol
Assay type: cell-based
Conditions: CHO-K1 cells overexpressing human LPA1 and G15a, LPA challenge at EC80
How it was run: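 Calcium mobilization read on FLIPR after EC80 LPA was added to compound-pretreated (30 min) CHO-K1 cells co-expressing human LPA1 and G15a. Cells were starved 4 h and dye-loaded with Fluo-8 AM/2.5 mM probenecid in HBSS-Hepes; inhibition normalized between DMSO and LPA-control RFU.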

[1] = calcium mobilization on FLIPR Tetra, read-out: IC50
[2] = Table B3, read-out: Activity (IC50 class)

T1 sequence (Q92633 whole entry): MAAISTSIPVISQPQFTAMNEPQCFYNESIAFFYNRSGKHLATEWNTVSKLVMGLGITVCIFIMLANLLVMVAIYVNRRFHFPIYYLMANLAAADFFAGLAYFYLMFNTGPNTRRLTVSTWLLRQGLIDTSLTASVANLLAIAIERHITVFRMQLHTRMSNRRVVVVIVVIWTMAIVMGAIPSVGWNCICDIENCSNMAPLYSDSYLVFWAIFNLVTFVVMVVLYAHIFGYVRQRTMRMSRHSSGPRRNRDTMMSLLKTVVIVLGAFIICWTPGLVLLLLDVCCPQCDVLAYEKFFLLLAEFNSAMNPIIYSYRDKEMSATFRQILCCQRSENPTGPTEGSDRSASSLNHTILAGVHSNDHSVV

Row | IC50 [1] | IC50 [2] | SMILES
1 | 23.5 nM | < 100 nM | COc1cc(-c2ccc(NC3(C(=O)O)CCC(F)(F)CC3)cc2COC2CC2)c(F)c(OC)c1C [Compound 347]
2 | 711 nM | > 1000 nM | O=C(O)C1(Nc2ccc(-c3cccc(CCO)c3F)c(COC3CC3)c2)CCOCC1 [Compound 305]
3 | 58.4 nM | < 100 nM | CCCOc1cccc(-c2ccc(NC3(C(=O)O)CCOCC3)cc2COC2CC2)c1F [Compound 307]
4 | 315 nM | 100 to 1000 nM | CCOc1cc(OC)cc(-c2ccc(NC3(C(=O)O)CC3)cc2COC2CC2)c1F [Compound 337]
5 | 35.5 nM | < 100 nM | COc1cc(-c2ccc(OC3(C(=O)O)CCOCC3)cc2COC2CC2)c(C)c(OC)c1C [Compound 354]
6 | 24 nM | < 100 nM | CCOc1cc(OC)cc(-c2ccc(NC3(C(=O)O)CCOCC3)cc2COC2CCCC2)c1 [Compound 315]
7 | 18.7 nM | < 100 nM | COc1cc(-c2ccc(OC3(C(=O)O)CCOCC3)cc2COC2CC2)c(Cl)c(OC)c1C [Compound 365]
8 | 1.03 nM | < 100 nM | CCOc1cccc(-c2ccc(NC3(C(=O)O)CCCC3)cc2COC2CC2)c1C(F)F [Compound 376]
9 | 23.2 nM | < 100 nM | CCOc1cccc(-c2ccc(NC3(C(=O)O)CCOCC3)cc2COC2CCCC2)c1F [Compound 245, 4-((2-((cyclopentyloxy)methyl)-3′-ethoxy-2′-fluoro-[1,1′-biphenyl]-4-yl)amino)tetrahydro-2H-pyran-4-carboxylic acid]
10 | > 10000 nM | > 1000 nM | COc1cc(-c2ccc(NC3(C(=O)O)CCOCC3)cc2CNC2CCCC2)cc(OC)c1C [Compound 153]
11 | 117 nM | 100 to 1000 nM | COc1cc(OC)c(F)c(-c2ccc(NC3(C(=O)O)CCOCC3)cc2COC2CC2)c1 [Compound 292]
12 | 23.1 nM | < 100 nM | CCOc1cncc(-c2ccc(NC3(C(=O)O)CCOCC3)cc2COC2CC2)c1C(F)F [Compound 403]
13 | 538 nM | 100 to 1000 nM | CCOc1cncc(-c2ccc(C3(C(=O)O)CC3)cc2COC2CCCC2)c1C(F)F [Compound 412]
14 | 27.6 nM | < 100 nM | COc1cc(-c2c(F)cc(NC3(C(=O)O)CCOCC3)cc2COC2CCCC2)c(F)c(OC)c1C [Compound 168]
15 | 5.37 nM | < 100 nM | CCOc1cccc(-c2ccc(NC3(C(=O)O)CCOCC3)cc2COC2CC2)c1C(F)(F)F [Compound 358]
16 | 87 nM | 100 to 1000 nM | COc1c(C(C)OC)ccc(-c2ccc(NC3(C(=O)O)CCOCC3)cc2COC2CCCC2)c1C (single isomer, unassigned) [Compound 241]
17 | 5.42 nM | < 100 nM | CCOc1cccc(-c2ccc(NC3(C(=O)O)CCOCC3)cc2COC2CCCC2)c1Cl [Compound 264]
18 | 60.4 nM | < 100 nM | COc1cc(-c2ccc(NC3(C(=O)O)CCOCC3)cc2COC2CCC2)c(F)c(OC)c1C [Compound 263]
19 | 17.2 nM | < 100 nM | CCOc1nccc(-c2ccc(NC3(C(=O)O)CCOCC3)cc2COC2CC2)c1C(F)F [Compound 338]
20 | 5.44 nM | < 100 nM | CCOc1c(C)c(OC)cc(-c2ccc(NC3(C(=O)O)CCOCC3)cc2COC2CC2)c1F [Compound 312]
21 | 33.2 nM | < 100 nM | CCOc1cc(OC)cc(-c2ccc(NC3(C(=O)O)CC(F)(F)C3)cc2COC2CC2)c1F [Compound 367]
22 | 30.8 nM | < 100 nM | COc1cc(-c2ccc(NC3(C(=O)O)CCOCC3)cc2COC2CCCC2)c(Cl)c(OC)c1C#N [Compound 262]
23 | 1880 nM | > 1000 nM | COc1cc(-c2ccc(NCC(=O)O)cc2COC2Cc3ccccc3C2)cc(OC)c1C [Compound 108]
24 | 68 nM | < 100 nM | CCOc1cccc(-c2ccc(NC3(C(=O)O)CCOCC3)cc2CCC2CCOC2)c1F (centres unmarked) [Compound 267]
25 | 883 nM | 100 to 1000 nM | COCC(=O)N1CCC(Nc2cc(C)c(-c3cc(OC)cc(OC)c3)c(COC3CCCC3)c2)(C(=O)O)CC1 [Compound 176]
26 | 17.1 nM | < 100 nM | COc1cc(-c2c(COC3CCCC3)cc(NC3(C(=O)O)CCOCC3)cc2C(F)F)cc(OC)c1C [Compound 273]
27 | 1130 nM | > 1000 nM | COc1cc(-c2ccc(OC3(C(=O)O)CCOCC3)cc2COC2CC2)c(F)c(OC)c1C [Compound 343]
28 | 14 nM | < 100 nM | CCOc1cccc(-c2ccc(NC3(C(=O)O)CC3)cc2COC2CCCC2)c1C(F)F [Compound 317]

Row | IC50 [1] | IC50 [2] | SMILES
29 | 28.8 nM | < 100 nM | COC(=O)N1CCC(Nc2ccc(-c3cc(OC)c(C)c(OC)c3)c(COC3CCCC3)c2)(C(=O)O)CC1 [Compound 140, 4-((2-((cyclopentyloxy)methyl)-3′,5′-dimethoxy-4′-methyl-[1,1′-biphenyl]-4-yl)amino)-1-(methoxycarbonyl)piperidine-4-carboxylic acid]
30 | 584 nM | 100 to 1000 nM | COc1cc(-c2ccc(NC3(C(=O)O)CCOCC3)cc2COC2COc3ccccc32)cc(OC)c1C (single isomer, unassigned) [Compound 217]
31 | 49.8 nM | < 100 nM | CCOc1cccc(-c2ccc(NC3(C(=O)O)CC3)cc2COC2CC2)c1C(F)F [Compound 359]
32 | 67.3 nM | < 100 nM | CCOc1cc(-c2ccc(OC3(C(=O)O)CCOCC3)cc2COC2CCCC2)cc(OC)c1C [Compound 379]
33 | 88 nM | < 100 nM | COc1cc(-c2c(C)cc(NC3(C(=O)O)CCOCC3)cc2COC2CCCC2)c(C)c(OC)c1C [Compound 149]
34 | 266 nM | 100 to 1000 nM | COc1c(C(C)OC)ccc(-c2ccc(NC3(C(=O)O)CCOCC3)cc2COC2CCCC2)c1C (single isomer, unassigned) [Compound 242]
35 | 1080 nM | > 1000 nM | CCOc1cc(OC)cc(-c2ccc(NC3(C(=O)O)CCOCC3)cc2COC2CC2)c1 [Compound 316]
36 | 6.93 nM | < 100 nM | COc1cc(-c2ccc(NC3(C(=O)O)CCOCC3)cc2COC2CC2)c(C(F)F)c(OC)c1C [Compound 310]
37 | 45.2 nM | < 100 nM | CCCOCc1cc(NC2(C(=O)O)CCOCC2)ccc1-c1cc(OC)c(C)c(OC)c1F [Compound 334]
38 | 19.7 nM | < 100 nM | COc1cc(-c2ccc(NC3(C(=O)O)CCOCC3)cc2COC2CC2)c(F)c(OC)c1C#N [Compound 342]
39 | 76.7 nM | < 100 nM | COc1cc(-c2ccc(NC3(C(=O)O)CCOCC3)cc2COC2CCCC2)c(F)cc1C [Compound 319]
40 | 45.2 nM | < 100 nM | CCOC1CC(Nc2ccc(-c3cc(OC)c(C)c(OC)c3)c(COC3Cc4ccccc4C3)c2)(C(=O)O)C1 (centres unmarked) [Compound 137]
41 | 72.7 nM | < 100 nM | CC(C)COc1cccc(-c2ccc(NC3(C(=O)O)CCOCC3)cc2COC2CCCC2)c1F [Compound 277]
42 | 18.6 nM | < 100 nM | COc1cc(-c2ccc(NC3(C(=O)O)CCOCC3)cc2COC2COc3ccccc32)cc(OC)c1C (single isomer, unassigned) [Compound 216]
43 | 15.8 nM | < 100 nM | COc1cc(OC2CC2)c(F)c(-c2ccc(NC3(C(=O)O)CCOCC3)cc2COC2CC2)c1 [Compound 290]
44 | 64.3 nM | < 100 nM | COc1cc(-c2ccc(NC3(C(=O)O)CCOCC3)cc2CCC2CCOC2)cc(OC)c1C (single isomer, unassigned) [Compound 186, 4-((3′,5′-dimethoxy-4′-methyl-2-(2-(tetrahydrofuran-3-yl)ethyl)-[1,1′-biphenyl]-4-yl)amino)tetrahydro-2H-pyran-4-carboxylic acid]
45 | 30.4 nM | < 100 nM | COc1cc(-c2ccc(NC3(C(=O)O)CCOCC3)cc2COC2CCCC2)c(Cl)c(OC)n1 [Compound 207, 4-((4-(3-chloro-2,6-dimethoxypyridin-4-yl)-3-((cyclopentyloxy)methyl)phenyl)amino)tetrahydro-2H-pyran-4-carboxylic acid]
46 | 142 nM | 100 to 1000 nM | CCOc1c(F)ccc(-c2ccc(NC3(C(=O)O)CCOCC3)cc2COC2CCCC2)c1F [Compound 266]
47 | 9.37 nM | < 100 nM | COc1cc(OC2CC2)cc(-c2ccc(NC3(C(=O)O)CCOCC3)cc2COC2CCCC2)c1 [Compound 331]
48 | > 10000 nM | > 1000 nM | CCOc1cc(OC)cc(-c2ccc(C3(C(=O)O)CC3)cc2COC2CC2)c1F [Compound 382]
49 | 33.2 nM | < 100 nM | COc1cc(-c2c(Cl)cc(NC3(C(=O)O)CCOCC3)cc2COC2CCCC2)cc(OC)c1C [Compound 184]
50 | 6820 nM | > 1000 nM | COc1cc(-c2ccc(NCCC(=O)O)cc2OCC2(C)Oc3ccccc3O2)cc(OC)c1C [Compound 115]
51 | 10.5 nM | < 100 nM | COc1cc(-c2ccc(NC3(C(=O)O)CCOCC3)cc2COC2CCCC2)c(C)c(OC)c1C [Compound 148, 4-((2-((cyclopentyloxy)methyl)-3′,5′-dimethoxy-2′,4′-dimethyl-[1,1′-biphenyl]-4-yl)amino)tetrahydro-2H-pyran-4-carboxylic acid]
52 | 81.6 nM | 100 to 1000 nM | COc1cc(-c2ccc(NC3(C(=O)O)CCOCC3)cc2COC2CCCC2)c(OC)c(OC)c1C [Compound 220]
53 | 229 nM | 100 to 1000 nM | COc1cc(-c2c(COC3CCCC3)cc(NC3(C(=O)O)CCOCC3)cc2C(F)(F)F)cc(OC)c1C [Compound 275]
54 | 79.8 nM | < 100 nM | CCc1c(-c2ccc(OC3(C(=O)O)CCOCC3)cc2COC2CCCC2)cc(OC)c(C)c1OC [Compound 194]
55 | 24.9 nM | < 100 nM | COc1cc(OC)c(C)c(-c2ccc(NC3(C(=O)O)CCOCC3)cc2COC2CCCC2)c1 [Compound 179]

— patent US11884627B2, “Compounds and compositions for treating conditions associated with LPA receptor activity” (Lhotse Bio, Inc., priority 2022, dated 2024)
